Legend:
Htel (DNA, G4) TTAGGG [1] = assay: 1H NMR titration and NOESY; details: 150 mM KCl, 25 mM KH2PO4, 1 mM EDTA, pH 6.7, 25 °C
[2] = system: HT24 (DNA, G4) TAGGGTTAGGGTTAGGGTTAGGGT; assay: competitive dialysis; details: potassium phosphate buffer; 50 µM DNA, 1 µM ligand, 24 h, room temperature
ds6 (DNA, duplex) CGATCG [3] = assay: fluorescence titration; details: 185 mM KCl, 185 mM NaCl; pH 7, 25 °C; up to 25 µM DNA, 1 µM ligand; n.d., no change in fluorescence
[4] = system: 24bcl (DNA, G4) CGGGCGCGGGAGGAAGGGGGCGGG; assay: competitive dialysis; details: potassium phosphate buffer; 50 µM DNA, 1 µM ligand, 24 h, room temperature
Htel (DNA, G4) TTAGGG [5] = assay: imino proton NMR melting; details: 150 mM KCl, 25 mM KH2PO4; 1 mM EDTA, pH 6.7; imino signals lost at 45-55 °C free, still observed at 55 °C bound
[6] = system: cmyc (DNA, G4) GGGGAGGGTGGGGAGGGTGGGGAAGGTGGGG; assay: competitive dialysis; details: potassium phosphate buffer; 50 µM DNA, 1 µM ligand, 24 h, room temperature
[7] = system: ds26 (DNA, duplex) CAATCGGATCGAATTCGATCCGATTG; assay: competitive dialysis; details: potassium phosphate buffer, 50 µM DNA, 1 µM ligand, 24 h, room temperature
Htel (DNA, G4) TTAGGG [8] = assay: fluorescence titration, Equispec fit; details: 185 mM KCl, 185 mM NaCl; 6 mM Na2HPO4, 2 mM NaH2PO4, 1 mM EDTA, pH 7, 25 °C; macroscopic; 1 µM ligand
[9] = system: ds8 (DNA, duplex) GCGATCGC; assay: 1H NMR titration; details: 70 mM KCl, 10 mM KH2PO4; 0.2 mM EDTA, pH 7.0; line broadening only, no intermolecular NOE; ions stated for other duplexes
ds6 (DNA, duplex) CGATCG [10] = assay: 1H and 31P NMR titration; details: 70 mM KCl, 10 mM KH2PO4; 0.2 mM EDTA, pH 7.0; [drug]/[DNA] up to 3

binding [2] | binding (ds6 (DNA, duplex) CGATCG [3]) | binding [4] | binding (Htel (DNA, G4) TTAGGG [5]) | binding [6] | binding [7] | Logarithm of the binding constants (Htel (DNA, G4) TTAGGG [8]) | binding (ds6 (DNA, duplex) CGATCG [10]) | binding ([7]; NMR suggests outside binding) | SMILES | binding (Htel (DNA, G4) TTAGGG [1]; site at T2, A3, G4) | binding (Htel (DNA, G4) TTAGGG [1]; intercalates between A3 and G4) | binding [9]
yes | no | yes | yes | yes | no | 4.4 ± 0.1 log (M-1) | – | – | CN1CCN(C(=O)c2ccc3c(NC4CCN(Cc5ccccc5)CC4)c4ccccc4nc3c2)CC1 | yes | – | –
yes | no | yes | yes | yes | – | 4.9 ± 0.1 log (M-1) | no | yes | CN1CCN(C(=O)c2cccc3c(NCCc4c[nH]c5ccccc45)c4ccccc4nc23)CC1 | – | yes | weak

— article PMC3598906 (2013)
